Tests used:
Assay in all cases: biochemical
Type in all cases: binding
panel of 442 kinases [1] = target: T1, panel of 442 kinases (Homo sapiens, UniProt P35916); details: kinase FLT4; for remaining activity at 1 µM: read-out: % of control at 1 µM
T1 construct: purchased Ambit Biosciences (scanMAXX KINOMEscan)

panel of 442 kinases [2] = target: T2, panel of 442 kinases (Homo sapiens, UniProt Q6ZN16); details: kinase MAP3K15; for remaining activity at 1 µM: read-out: % of control at 1 µM
T2 construct: purchased Ambit Biosciences (scanMAXX KINOMEscan)
T2 sequence (Q6ZN16 1-1313): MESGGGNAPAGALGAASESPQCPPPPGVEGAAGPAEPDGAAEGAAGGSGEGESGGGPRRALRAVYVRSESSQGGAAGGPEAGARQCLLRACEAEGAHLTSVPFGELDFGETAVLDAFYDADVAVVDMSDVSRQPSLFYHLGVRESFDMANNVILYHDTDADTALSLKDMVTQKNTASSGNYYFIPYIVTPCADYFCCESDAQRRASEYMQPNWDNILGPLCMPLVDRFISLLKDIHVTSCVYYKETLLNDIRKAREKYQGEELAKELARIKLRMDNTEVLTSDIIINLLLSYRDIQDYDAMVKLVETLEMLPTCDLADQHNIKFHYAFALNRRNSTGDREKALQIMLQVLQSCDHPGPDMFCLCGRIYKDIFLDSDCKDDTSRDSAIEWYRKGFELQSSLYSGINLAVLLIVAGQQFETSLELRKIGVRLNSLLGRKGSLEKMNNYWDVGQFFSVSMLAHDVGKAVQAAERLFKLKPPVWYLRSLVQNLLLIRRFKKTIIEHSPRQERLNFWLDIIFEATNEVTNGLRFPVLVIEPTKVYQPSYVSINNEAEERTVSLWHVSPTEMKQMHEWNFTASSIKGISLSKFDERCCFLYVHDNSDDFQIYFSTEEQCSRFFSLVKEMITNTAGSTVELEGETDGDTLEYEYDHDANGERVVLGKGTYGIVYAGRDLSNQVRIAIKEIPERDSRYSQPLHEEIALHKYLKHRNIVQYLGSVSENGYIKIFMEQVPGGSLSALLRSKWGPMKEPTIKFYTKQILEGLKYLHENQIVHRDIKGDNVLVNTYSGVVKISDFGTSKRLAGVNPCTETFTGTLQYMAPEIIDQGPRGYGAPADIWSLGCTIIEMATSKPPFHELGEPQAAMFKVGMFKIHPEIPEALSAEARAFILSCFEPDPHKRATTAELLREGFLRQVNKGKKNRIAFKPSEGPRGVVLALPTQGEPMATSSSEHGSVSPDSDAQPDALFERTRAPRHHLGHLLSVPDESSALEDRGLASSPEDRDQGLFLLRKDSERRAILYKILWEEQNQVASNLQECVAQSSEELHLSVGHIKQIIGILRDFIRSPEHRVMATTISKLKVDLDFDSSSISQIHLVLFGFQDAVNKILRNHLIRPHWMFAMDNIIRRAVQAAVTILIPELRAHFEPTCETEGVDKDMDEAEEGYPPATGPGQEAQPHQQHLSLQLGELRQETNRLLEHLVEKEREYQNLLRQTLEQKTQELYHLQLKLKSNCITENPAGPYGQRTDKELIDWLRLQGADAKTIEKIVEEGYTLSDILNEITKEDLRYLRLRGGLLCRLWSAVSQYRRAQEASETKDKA

panel of 442 kinases [3] = target: T3, panel of 442 kinases (Homo sapiens, UniProt Q9Y2U5); details: kinase MAP3K2; for remaining activity at 1 µM: read-out: % of control at 1 µM
T3 construct: purchased Ambit Biosciences (scanMAXX KINOMEscan)
T3 sequence (Q9Y2U5 1-619): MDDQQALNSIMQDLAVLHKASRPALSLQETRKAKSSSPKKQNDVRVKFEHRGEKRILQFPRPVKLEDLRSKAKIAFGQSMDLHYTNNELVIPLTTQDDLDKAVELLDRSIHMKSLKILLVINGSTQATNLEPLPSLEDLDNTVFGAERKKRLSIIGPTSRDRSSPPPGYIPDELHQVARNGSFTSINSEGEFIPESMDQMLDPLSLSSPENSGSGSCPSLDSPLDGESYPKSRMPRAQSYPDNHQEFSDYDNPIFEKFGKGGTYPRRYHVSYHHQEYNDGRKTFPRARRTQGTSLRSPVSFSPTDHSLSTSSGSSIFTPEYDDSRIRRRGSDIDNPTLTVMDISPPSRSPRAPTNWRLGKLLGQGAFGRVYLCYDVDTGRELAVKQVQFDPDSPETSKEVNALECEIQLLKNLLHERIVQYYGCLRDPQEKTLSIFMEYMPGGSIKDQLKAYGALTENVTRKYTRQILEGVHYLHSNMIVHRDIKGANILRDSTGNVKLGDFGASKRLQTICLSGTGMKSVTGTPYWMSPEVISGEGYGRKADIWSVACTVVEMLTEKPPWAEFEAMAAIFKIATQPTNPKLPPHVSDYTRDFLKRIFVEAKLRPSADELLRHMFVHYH

panel of 442 kinases [4] = target: T4, panel of 442 kinases (Homo sapiens, UniProt P37173); details: kinase TGFBR2; for remaining activity at 1 µM: read-out: TGFBR2 (% of control at 1 µM)
T4 construct: purchased Ambit Biosciences (scanMAXX KINOMEscan)

panel of 442 kinases [5] = target: T5, panel of 442 kinases (Homo sapiens, UniProt Q9H1R3); details: kinase MYLK2; for remaining activity at 1 µM: read-out: % of control at 1 µM
T5 construct: purchased Ambit Biosciences (scanMAXX KINOMEscan)

panel of 442 kinases [6] = target: T6, panel of 442 kinases (Homo sapiens, UniProt P57059); details: kinase SIK; for remaining activity at 1 µM: read-out: SIK (% of control at 1 µM)
T6 construct: purchased Ambit Biosciences (scanMAXX KINOMEscan)

panel of 442 kinases [7] = target: T7, panel of 442 kinases (Homo sapiens, UniProt Q9Y6M4); details: CSNK1G3; for remaining activity at 1 µM: read-out: % of control at 1 µM
T7 construct: purchased Ambit Biosciences (scanMAXX KINOMEscan)

panel of 442 kinases [8] = target: T8, panel of 442 kinases (Homo sapiens, UniProt P51451); details: BLK; for remaining activity at 1 µM: read-out: % of control at 1 µM
T8 construct: purchased Ambit Biosciences (scanMAXX KINOMEscan)

panel of 442 kinases [9] = target: T9, panel of 442 kinases (Homo sapiens, UniProt P54764); details: EPHA4; for remaining activity at 1 µM: read-out: % of control at 1 µM
T9 construct: purchased Ambit Biosciences (scanMAXX KINOMEscan)

[10] = 10 µM, read-out: % of control at 10 µM

T4 sequence (P37173 23-567): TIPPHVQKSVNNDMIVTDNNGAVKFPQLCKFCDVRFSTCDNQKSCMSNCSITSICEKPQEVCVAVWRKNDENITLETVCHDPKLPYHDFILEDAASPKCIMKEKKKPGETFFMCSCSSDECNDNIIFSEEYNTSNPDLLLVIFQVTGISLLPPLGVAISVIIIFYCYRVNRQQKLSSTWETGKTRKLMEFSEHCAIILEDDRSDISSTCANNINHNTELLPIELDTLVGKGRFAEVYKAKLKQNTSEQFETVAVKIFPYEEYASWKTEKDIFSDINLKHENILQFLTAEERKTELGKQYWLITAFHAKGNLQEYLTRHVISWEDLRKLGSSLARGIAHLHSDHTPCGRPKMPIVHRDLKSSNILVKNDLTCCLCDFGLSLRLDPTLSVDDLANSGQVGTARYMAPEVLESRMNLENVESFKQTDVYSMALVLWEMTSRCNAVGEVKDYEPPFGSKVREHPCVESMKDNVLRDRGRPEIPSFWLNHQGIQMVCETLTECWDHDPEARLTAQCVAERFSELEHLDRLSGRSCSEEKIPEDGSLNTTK
T9 sequence (P54764 20-986): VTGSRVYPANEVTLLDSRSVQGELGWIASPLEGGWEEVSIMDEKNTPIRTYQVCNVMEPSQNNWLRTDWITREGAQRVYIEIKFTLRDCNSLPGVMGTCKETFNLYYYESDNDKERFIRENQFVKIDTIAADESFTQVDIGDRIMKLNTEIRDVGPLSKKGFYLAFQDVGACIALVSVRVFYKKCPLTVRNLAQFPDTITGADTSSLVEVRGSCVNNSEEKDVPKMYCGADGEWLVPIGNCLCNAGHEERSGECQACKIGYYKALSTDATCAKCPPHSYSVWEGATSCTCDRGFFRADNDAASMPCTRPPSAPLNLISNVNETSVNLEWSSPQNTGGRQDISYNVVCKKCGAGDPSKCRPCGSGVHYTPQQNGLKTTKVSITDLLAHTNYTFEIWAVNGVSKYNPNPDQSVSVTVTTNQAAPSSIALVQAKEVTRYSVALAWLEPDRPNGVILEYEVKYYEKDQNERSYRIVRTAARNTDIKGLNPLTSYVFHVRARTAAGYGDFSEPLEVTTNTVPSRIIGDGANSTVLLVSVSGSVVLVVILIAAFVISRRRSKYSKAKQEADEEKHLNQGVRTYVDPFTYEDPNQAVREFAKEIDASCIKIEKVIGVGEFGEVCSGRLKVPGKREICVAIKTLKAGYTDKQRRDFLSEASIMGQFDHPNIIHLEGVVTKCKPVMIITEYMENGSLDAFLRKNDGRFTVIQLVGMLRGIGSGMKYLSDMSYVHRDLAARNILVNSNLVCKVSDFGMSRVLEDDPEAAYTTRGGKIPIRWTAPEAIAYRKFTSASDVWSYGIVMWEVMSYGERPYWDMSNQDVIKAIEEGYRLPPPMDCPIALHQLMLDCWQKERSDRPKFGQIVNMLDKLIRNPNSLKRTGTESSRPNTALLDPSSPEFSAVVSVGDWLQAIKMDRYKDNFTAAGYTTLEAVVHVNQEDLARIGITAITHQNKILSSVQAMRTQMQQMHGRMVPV
T6 sequence (P57059 whole entry): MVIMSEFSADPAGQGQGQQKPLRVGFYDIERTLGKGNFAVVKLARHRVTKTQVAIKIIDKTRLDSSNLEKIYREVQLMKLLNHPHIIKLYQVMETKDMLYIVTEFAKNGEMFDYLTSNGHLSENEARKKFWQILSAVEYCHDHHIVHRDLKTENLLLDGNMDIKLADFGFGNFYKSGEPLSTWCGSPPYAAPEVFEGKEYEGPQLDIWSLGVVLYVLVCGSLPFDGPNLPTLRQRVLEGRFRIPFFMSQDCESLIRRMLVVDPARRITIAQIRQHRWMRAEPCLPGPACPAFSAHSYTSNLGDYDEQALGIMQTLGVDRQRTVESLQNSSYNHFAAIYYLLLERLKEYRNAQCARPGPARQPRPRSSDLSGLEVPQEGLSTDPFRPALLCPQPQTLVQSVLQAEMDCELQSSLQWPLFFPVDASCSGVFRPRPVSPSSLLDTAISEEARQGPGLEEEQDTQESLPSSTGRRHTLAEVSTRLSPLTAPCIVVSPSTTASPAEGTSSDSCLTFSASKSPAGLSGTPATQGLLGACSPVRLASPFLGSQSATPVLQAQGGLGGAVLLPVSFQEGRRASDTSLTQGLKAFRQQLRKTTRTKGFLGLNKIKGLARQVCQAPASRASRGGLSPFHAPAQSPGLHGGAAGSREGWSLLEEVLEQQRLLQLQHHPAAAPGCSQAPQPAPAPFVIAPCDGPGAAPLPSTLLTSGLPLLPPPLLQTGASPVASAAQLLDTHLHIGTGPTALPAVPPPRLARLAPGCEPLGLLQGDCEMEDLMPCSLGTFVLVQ
T1 sequence (P35916 25-1363): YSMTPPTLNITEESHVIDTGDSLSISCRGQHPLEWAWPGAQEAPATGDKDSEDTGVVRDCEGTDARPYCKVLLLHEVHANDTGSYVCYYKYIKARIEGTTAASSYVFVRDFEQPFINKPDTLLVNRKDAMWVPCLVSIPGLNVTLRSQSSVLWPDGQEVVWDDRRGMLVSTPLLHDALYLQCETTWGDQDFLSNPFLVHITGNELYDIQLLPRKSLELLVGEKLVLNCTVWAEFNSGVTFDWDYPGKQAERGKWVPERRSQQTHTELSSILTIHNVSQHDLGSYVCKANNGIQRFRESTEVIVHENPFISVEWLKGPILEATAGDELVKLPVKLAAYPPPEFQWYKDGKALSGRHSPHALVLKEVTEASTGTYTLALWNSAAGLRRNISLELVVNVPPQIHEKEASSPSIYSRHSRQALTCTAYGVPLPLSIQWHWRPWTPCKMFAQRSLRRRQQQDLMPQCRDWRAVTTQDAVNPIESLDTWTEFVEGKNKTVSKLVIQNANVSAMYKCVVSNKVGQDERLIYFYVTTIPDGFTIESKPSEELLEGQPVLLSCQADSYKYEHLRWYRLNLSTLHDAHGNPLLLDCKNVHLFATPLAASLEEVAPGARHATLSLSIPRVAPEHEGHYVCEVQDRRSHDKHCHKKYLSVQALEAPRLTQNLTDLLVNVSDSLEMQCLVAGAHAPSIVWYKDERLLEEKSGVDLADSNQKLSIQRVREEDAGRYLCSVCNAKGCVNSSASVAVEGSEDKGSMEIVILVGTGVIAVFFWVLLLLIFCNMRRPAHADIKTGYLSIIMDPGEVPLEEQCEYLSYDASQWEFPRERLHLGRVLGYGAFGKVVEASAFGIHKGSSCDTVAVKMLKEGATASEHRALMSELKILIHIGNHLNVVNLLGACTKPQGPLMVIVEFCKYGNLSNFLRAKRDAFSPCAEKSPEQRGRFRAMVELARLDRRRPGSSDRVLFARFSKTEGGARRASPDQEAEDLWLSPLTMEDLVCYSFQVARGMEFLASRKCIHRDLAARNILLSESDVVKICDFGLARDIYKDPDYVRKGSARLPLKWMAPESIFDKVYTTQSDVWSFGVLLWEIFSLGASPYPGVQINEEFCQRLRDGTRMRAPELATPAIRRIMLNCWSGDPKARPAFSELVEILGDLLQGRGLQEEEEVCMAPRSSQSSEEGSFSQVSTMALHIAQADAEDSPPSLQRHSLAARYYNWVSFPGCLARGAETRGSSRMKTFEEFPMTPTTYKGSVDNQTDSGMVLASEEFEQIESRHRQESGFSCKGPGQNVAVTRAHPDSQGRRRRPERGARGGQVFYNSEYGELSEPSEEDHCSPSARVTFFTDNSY
T8 sequence (P51451 whole entry): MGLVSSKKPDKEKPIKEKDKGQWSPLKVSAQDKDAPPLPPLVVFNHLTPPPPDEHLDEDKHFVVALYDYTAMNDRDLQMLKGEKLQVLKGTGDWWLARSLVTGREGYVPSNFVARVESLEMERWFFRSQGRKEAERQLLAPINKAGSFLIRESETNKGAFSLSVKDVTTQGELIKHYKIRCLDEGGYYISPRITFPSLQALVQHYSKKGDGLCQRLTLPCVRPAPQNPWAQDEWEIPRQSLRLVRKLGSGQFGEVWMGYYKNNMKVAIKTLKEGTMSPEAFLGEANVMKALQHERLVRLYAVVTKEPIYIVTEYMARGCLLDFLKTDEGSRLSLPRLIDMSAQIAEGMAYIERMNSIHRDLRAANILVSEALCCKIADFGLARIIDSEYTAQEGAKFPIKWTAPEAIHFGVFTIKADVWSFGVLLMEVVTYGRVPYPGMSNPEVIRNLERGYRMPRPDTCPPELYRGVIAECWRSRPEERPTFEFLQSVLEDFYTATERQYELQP
T7 sequence (Q9Y6M4 whole entry): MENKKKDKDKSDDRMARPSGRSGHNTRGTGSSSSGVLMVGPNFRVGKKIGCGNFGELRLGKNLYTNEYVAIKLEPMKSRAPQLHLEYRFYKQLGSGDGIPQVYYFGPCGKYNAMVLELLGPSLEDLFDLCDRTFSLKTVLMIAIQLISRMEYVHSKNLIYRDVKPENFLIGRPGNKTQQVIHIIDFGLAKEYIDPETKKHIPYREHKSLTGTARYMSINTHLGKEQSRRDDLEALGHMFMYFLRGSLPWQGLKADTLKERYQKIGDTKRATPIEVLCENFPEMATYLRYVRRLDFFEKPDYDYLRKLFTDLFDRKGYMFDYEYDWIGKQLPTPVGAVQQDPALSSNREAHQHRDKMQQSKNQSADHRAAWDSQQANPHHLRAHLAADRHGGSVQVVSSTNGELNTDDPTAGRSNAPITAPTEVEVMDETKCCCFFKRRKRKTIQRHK

SMILES | remaining activity at 1 µM (panel of 442 kinases [1]) [%] | remaining activity at 10 µM (panel of 442 kinases [1]; [10]) [%] | remaining activity at 1 µM (panel of 442 kinases [2]) [%] | remaining activity at 10 µM (panel of 442 kinases [2]; [10]) [%] | remaining activity at 1 µM (panel of 442 kinases [3]) [%] | remaining activity at 10 µM (panel of 442 kinases [3]; [10]) [%] | remaining activity at 1 µM (panel of 442 kinases [4]) [%] | remaining activity at 10 µM (panel of 442 kinases [4]; 10 µM, read-out: TGFBR2 (% of control at 10 µM)) [%] | remaining activity at 1 µM (panel of 442 kinases [5]) [%] | remaining activity at 10 µM (panel of 442 kinases [5]; [10]) [%] | remaining activity at 1 µM (panel of 442 kinases [6]) [%] | remaining activity at 10 µM (panel of 442 kinases [6]; 10 µM, read-out: SIK (% of control at 10 µM)) [%] | remaining activity at 1 µM (panel of 442 kinases [7]) [%] | remaining activity at 10 µM (panel of 442 kinases [7]; [10]) [%] | remaining activity at 1 µM (panel of 442 kinases [8]) [%] | remaining activity at 10 µM (panel of 442 kinases [8]; [10]) [%] | remaining activity at 1 µM (panel of 442 kinases [9]) [%] | remaining activity at 10 µM (panel of 442 kinases [9]; [10]) [%]
Nc1cc(C(F)(F)F)c(-c2cc(N3CCOCC3)nc(N3CCOCC3)n2)cn1 [Buparlisib] | 99 | 100 | 97 | 100 | 100 | 100 | 98 | 100 | 100 | 100 | 100 | 100 | 100 | 100 | 93 | 100 | 98 | 100
Cn1c(=O)n(-c2ccc(C(C)(C)C#N)cc2)c2c3cc(-c4cnc5ccccc5c4)ccc3ncc21 [Dactolisib, 2-methyl-2-[4-(3-methyl-2-oxo-8-quinolin-3-yl-2,3-dihydroimidazo[4,5-c]quinolin-1-yl)-phenyl] propionitrile] | 100 |  | 100 |  | 72 |  | 100 |  | 93 |  | 100 |  | 72 |  | 97 |  | 97 | 
COc1ncc(-c2ccc3nccc(-c4ccnnc4)c3c2)cc1NS(=O)(=O)c1ccc(F)cc1F [Omipalisib] | 100 |  | 90 |  | 100 |  | 95 |  | 100 |  | 100 |  | 100 |  | 94 |  | 100 | 
FC(F)c1nc2ccccc2n1-c1nc(N2CCOCC2)nc(N2CCOCC2)n1 [ZSTK474, 2-(difluoromethyl)-1-[4,6-di(4-morpholinyl)-1,3,5-triazin-2-yl]-1H-benzimidazole] | 96 |  | 100 |  | 74 |  | 100 |  | 95 |  | 100 |  | 100 |  | 100 |  | 96 | 

— PMC5564600 (Oncotarget, 2017)
